Usually DC50 stands for the concentration at which degradation of the target reaches its halfway point. Broadly, the Dmax is the greatest extent of degradation seen.

Like-named read-outs stand apart in the source and are kept apart here.

The subject of one test is JeKo-1 cells. Put plainly: Antiproliferative effect, MTS cell viability assay, JeKo-1 cells. To be noted: JeKo-1 mantle cell lymphoma cells, read-out: IC50 (anti-proliferation) JeKO-1 cells. The class given is cell-based. The essentials: (§1)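 Readout was MTS-derived formazan absorbance (490 nm) reflecting metabolically active cells. Treatment lasted 72 h over a 0–10 μM range (0.001, 0.01, 0.1, 1, 10 μM) in JeKo-1 and Mino B-cell malignancy cells.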
(In general: Tetrazolium assays rely on reduction of a dye to a coloured formazan, in cell work by metabolically active cells.)

The next test has as its target BTK (Homo sapiens, UniProt Q06187). Put plainly: Degradation of BTK protein in Namalwa cells (Western blot; DC50, Dmax). To be noted: for DC50: read-out: DC50 (BTK degradation), concentration giving 50% reduction of BTK expression level; for Dmax: read-out: Dmax (BTK degradation). For orientation: In western blotting, separated proteins are transferred to a membrane and probed.

Another test has as its system Mino cells. Put plainly: Antiproliferative effect, MTS cell viability assay, Mino cells. The class given is cell-based. To be noted: Mino mantle cell lymphoma cells, read-out: IC50 (anti-proliferation) Mino cells. The essentials:
as §1

Chain of BTK (Q06187 whole entry): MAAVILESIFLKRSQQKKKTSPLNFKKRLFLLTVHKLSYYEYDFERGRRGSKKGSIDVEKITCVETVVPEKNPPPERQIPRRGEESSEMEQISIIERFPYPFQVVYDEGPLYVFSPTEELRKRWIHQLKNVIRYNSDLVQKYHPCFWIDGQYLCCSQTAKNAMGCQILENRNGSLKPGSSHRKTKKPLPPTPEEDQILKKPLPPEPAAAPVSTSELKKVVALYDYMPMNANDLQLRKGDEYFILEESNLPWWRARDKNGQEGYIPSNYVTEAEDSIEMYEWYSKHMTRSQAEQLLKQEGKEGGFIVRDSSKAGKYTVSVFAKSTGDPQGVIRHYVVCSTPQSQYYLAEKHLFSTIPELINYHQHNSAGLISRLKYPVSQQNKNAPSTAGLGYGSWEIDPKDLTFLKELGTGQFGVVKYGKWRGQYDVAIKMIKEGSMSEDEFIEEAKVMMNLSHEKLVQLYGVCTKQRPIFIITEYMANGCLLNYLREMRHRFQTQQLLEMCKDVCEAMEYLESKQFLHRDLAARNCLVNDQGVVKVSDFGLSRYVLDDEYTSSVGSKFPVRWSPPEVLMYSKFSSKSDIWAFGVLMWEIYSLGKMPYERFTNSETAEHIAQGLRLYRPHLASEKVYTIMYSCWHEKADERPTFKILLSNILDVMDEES

With `NC1=NC=NC2C1C(c1ccc(Oc3ccccc3)cc1)=NN2C1CCCN(C2CN(C(=O)N3CC(C4CN(c5ccc6c(c5)CN(C5CCC(=O)NC5=O)C6=O)C4)C3)C2)C1` (stereo not shown) [Compound 502], the IC50 with JeKo-1 cells (Homo sapiens) was under 1000 nM; with Mino cells (Homo sapiens, MINO), under 1000 nM. Further, the DC50 on BTK (cell line not given) lay within 10 to 50 nM. Also, the maximal degradation (Dmax) on BTK is over 90%.
As for `NC1=NC=NC2C1C(c1ccc(Oc3ccccc3)cc1)=NN2C1CCN(C(=O)N2CCN(C3CN(c4ccc5c(c4)C(=O)N(C4CCC(=O)NC4=O)C5=O)C3)CC2)CC1` (stereo not shown) [Compound 503, 5-(3-(4-(4-(4-amino-3-(4-phenoxyphenyl)-3a,7a-dihydro-1H-pyrazolo[3,4-d]pyrimidin-1-yl)piperidine-1-carbonyl)piperazin-1-yl)azetidin-1-yl)-2-(2,6-dioxopiperidin-3-yl)isoindoline-1,3-dione], the IC50 is under 1000 nM in the test on JeKo-1 cells (Homo sapiens) and under 1000 nM in the test with Mino cells (Homo sapiens, MINO). For the same molecule, the DC50 on BTK (cell line not given) lay in the range of 10 to 50 nM. In addition, at BTK, the maximal degradation (Dmax) was over 75%.
As to `NC1=NC=NC2C1C(c1ccc(Oc3ccccc3)cc1)=NN2C1CCN(C(=O)N2CCN(C3CN(c4ccc5c(c4)CN(C4CCC(=O)NC4=O)C5=O)C3)CC2)CC1` (stereo not shown) [Compound 504, 3-(5-(3-(4-(4-(4-amino-3-(4-phenoxyphenyl)-3a,7a-dihydro-1H-pyrazolo[3,4-d]pyrimidin-1-yl)piperidine-1-carbonyl)piperazin-1-yl)azetidin-1-yl)-1-oxoisoindolin-2-yl)piperidine-2,6-dione], the IC50 in the test on JeKo-1 cells (Homo sapiens) is under 1000 nM; in the test on Mino cells (Homo sapiens, MINO), under 1000 nM. In addition, the 50% degradation concentration (DC50) at BTK (cell line not given) was under 10 nM. The Dmax at BTK is over 90%.
With `NC1=NC=NC2C1C(c1ccc(Oc3ccccc3)cc1)=NN2[C@@H]1CCCN(C(=O)N2CCN(C3CN(c4ccc5c(c4)C(=O)N(C4CCC(=O)NC4=O)C5=O)C3)CC2)C1` (stereo partly drawn) [Compound 505, 5-(3-(4-((3R)-3-(4-amino-3-(4-phenoxyphenyl)-3a,7a-dihydro-1H-pyrazolo[3,4-d]pyrimidin-1-yl)piperidine-1-carbonyl)piperazin-1-yl)azetidin-1-yl)-2-(2,6-dioxopiperidin-3-yl)isoindoline-1,3-dione], the IC50 with JeKo-1 cells (Homo sapiens) is under 1000 nM; in the test on Mino cells (Homo sapiens, MINO), under 1000 nM. In addition, the half-maximal degradation concentration (DC50) at BTK (cell line not given) was 10 to 50 nM. Further, the maximal degradation (Dmax) on BTK is over 75%.
Consider `NC1=NC=NC2C1C(c1ccc(Oc3ccccc3)cc1)=NN2[C@@H]1CCCN(C(=O)N2CCN(C3CN(c4ccc5c(c4)CN(C4CCC(=O)NC4=O)C5=O)C3)CC2)C1` (stereo partly drawn) [Compound 506, 3-(5-(3-(4-((3R)-3-(4-amino-3-(4-phenoxyphenyl)-3a,7a-dihydro-1H-pyrazolo[3,4-d]pyrimidin-1-yl)piperidine-1-carbonyl)piperazin-1-yl)azetidin-1-yl)-1-oxoisoindolin-2-yl)piperidine-2,6-dione], for which the IC50 was under 1000 nM in the test with JeKo-1 cells (Homo sapiens) and under 1000 nM with Mino cells (Homo sapiens, MINO). The DC50 on BTK (cell line not given) fell in the range of 10 to 50 nM. On BTK, the maximal degradation (Dmax) was over 90%.
As to `Nc1ncnc2c1c(-c1ccc(Oc3ccccc3)cc1)nn2C1CCN(C(=O)C2CC(N3CCN(c4ccc5c(c4)C(=O)N(C4CCC(=O)NC4=O)C5=O)CC3)C2)CC1` (stereo not shown) [Compound 507, 5-(4-(3-(4-(4-amino-3-(4-phenoxyphenyl)-1H-pyrazolo[3,4-d]pyrimidin-1-yl)piperidine-1-carbonyl)cyclobutyl)piperazin-1-yl)-2-(2,6-dioxopiperidin-3-yl)isoindoline-1,3-dione], the IC50 in the test on JeKo-1 cells (Homo sapiens) is under 1000 nM; in the test with Mino cells (Homo sapiens, MINO) it was under 1000 nM. Also, the DC50 on BTK (cell line not given) was under 10 nM. Further, on BTK, the Dmax was over 90%.
For `Nc1ncnc2c1c(-c1ccc(Oc3ccccc3)cc1)nn2C1CCN(C(=O)C2CC(N3CCN(c4ccc5c(c4)CN(C4CCC(=O)NC4=O)C5=O)CC3)C2)CC1` (stereo not shown) [Compound 508, 3-(5-(4-(3-(4-(4-amino-3-(4-phenoxyphenyl)-1H-pyrazolo[3,4-d]pyrimidin-1-yl)piperidine-1-carbonyl)cyclobutyl)piperazin-1-yl)-1-oxoisoindolin-2-yl)piperidine-2,6-dione], the IC50 with JeKo-1 cells (Homo sapiens) is under 1000 nM; with Mino cells (Homo sapiens, MINO), under 1000 nM. For the same molecule, the DC50 at BTK (cell line not given) was under 10 nM. The maximal degradation (Dmax) at BTK is over 90%.
For the molecule `Nc1ncnc2c1c(-c1ccc(Oc3ccccc3)cc1)nn2C1CCN(C(=O)C2CN(C3CCN(c4ccc5c(c4)C(=O)N(C4CCC(=O)NC4=O)C5=O)CC3)C2)CC1` (stereo not shown) [Compound 509, 5-(4-(3-(4-(4-amino-3-(4-phenoxyphenyl)-1H-pyrazolo[3,4-d]pyrimidin-1-yl)piperidine-1-carbonyl)azetidin-1-yl)piperidin-1-yl)-2-(2,6-dioxopiperidin-3-yl)isoindoline-1,3-dione], the IC50 was under 1000 nM in the test on JeKo-1 cells (Homo sapiens) and under 1000 nM in the test on Mino cells (Homo sapiens, MINO). Further, the DC50 at BTK (cell line not given) was under 10 nM. For the same molecule, the Dmax at BTK is over 90%.
As to `Nc1ncnc2c1c(-c1ccc(Oc3ccccc3)cc1)nn2C1CCN(C(=O)C2CN(C3CCN(c4ccc5c(c4)CN(C4CCC(=O)NC4=O)C5=O)CC3)C2)CC1` (stereo not shown) [Compound 510, 3-(5-(4-(3-(4-(4-amino-3-(4-phenoxyphenyl)-1H-pyrazolo[3,4-d]pyrimidin-1-yl)piperidine-1-carbonyl)azetidin-1-yl)piperidin-1-yl)-1-oxoisoindolin-2-yl)piperidine-2,6-dione], the IC50 in the test on JeKo-1 cells (Homo sapiens) is under 1000 nM; with Mino cells (Homo sapiens, MINO), under 1000 nM. The DC50 at BTK (cell line not given) is under 10 nM. For the same molecule, the Dmax at BTK was over 90%.
For `Nc1ncnc2c1c(-c1ccc(Oc3ccccc3)cc1)nn2C1CCC(C(=O)N2CC(N3CCN(c4ccc5c(c4)C(=O)N(C4CCC(=O)NC4=O)C5=O)CC3)C2)CC1` (stereo not shown) [Compound 511, 5-(4-(1-(4-(4-amino-3-(4-phenoxyphenyl)-1H-pyrazolo[3,4-d]pyrimidin-1-yl)cyclohexane-1-carbonyl)-152-zetidine-3-yl)piperazin-1-yl)-2-(2,6-dioxopiperidin-3-yl)isoindoline-1,3-dione], the IC50 in the test with JeKo-1 cells is under 1000 nM. Further, at BTK (cell line not given), the “Dmax (BTK degradation)” value is “A (A >90%)” and the 50% degradation concentration (DC50) was under 10 nM. Besides, the IC50 in the test on Mino cells is under 1000 nM.
Consider `Nc1ncnc2c1c(-c1ccc(Oc3ccccc3)cc1)nn2C1CCC(C(=O)N2CC(N3CCN(c4ccc5c(c4)CN(C4CCC(=O)NC4=O)C5=O)CC3)C2)CC1` (stereo not shown) [Compound 512, 3-(5-(4-(1-(4-(4-amino-3-(4-phenoxyphenyl)-1H-pyrazolo[3,4-d]pyrimidin-1-yl)cyclohexane-1-carbonyl)azetidin-3-yl)piperazin-1-yl)-1-oxoisoindolin-2-yl)piperidine-2,6-dione], for which the IC50 in the test with JeKo-1 cells (Homo sapiens) is under 1000 nM; in the test on Mino cells (Homo sapiens, MINO) it was under 1000 nM. Also, the 50% degradation concentration (DC50) at BTK (cell line not given) is under 10 nM. In addition, the Dmax on BTK was over 90%.
For `Nc1ncnc2c1c(-c1ccc(Oc3ccccc3)cc1)nn2C1CCC(C(=O)N2CC(C3CCN(c4ccc5c(c4)C(=O)N(C4CCC(=O)NC4=O)C5=O)CC3)C2)CC1` (stereo not shown) [Compound 513, 5-(4-(1-(4-(4-amino-3-(4-phenoxyphenyl)-1H-pyrazolo[3,4-d]pyrimidin-1-yl)cyclohexane-1-carbonyl)azetidin-3-yl)piperidin-1-yl)-2-(2,6-dioxopiperidin-3-yl)isoindoline-1,3-dione], the IC50 in the test on JeKo-1 cells (Homo sapiens) is under 1000 nM; in the test with Mino cells (Homo sapiens, MINO), under 1000 nM. For the same molecule, at BTK (cell line not given), the half-maximal degradation concentration (DC50) was under 10 nM. For the same molecule, at BTK, the Dmax is over 90%.
`Nc1ncnc2c1c(-c1ccc(Oc3ccccc3)cc1)nn2C1CCC(C(=O)N2CC(C3CCN(c4ccc5c(c4)CN(C4CCC(=O)NC4=O)C5=O)CC3)C2)CC1` (stereo not shown) [Compound 514, 3-(5-(4-(1-(4-(4-amino-3-(4-phenoxyphenyl)-1H-pyrazolo[3,4-d]pyrimidin-1-yl)cyclohexane-1-carbonyl)azetidin-3-yl)piperidin-1-yl)-1-oxoisoindolin-2-yl)piperidine-2,6-dione]: the IC50 with JeKo-1 cells (Homo sapiens) was under 1000 nM; in the test with Mino cells (Homo sapiens, MINO), under 1000 nM. The DC50 at BTK (cell line not given) is under 10 nM. Moreover, the greatest degradation seen (Dmax) on BTK was over 90%.
With `Nc1ncnc2c1c(-c1ccc(Oc3ccccc3)cc1)nn2[C@@H]1CCCN(CC2CCN(CC3CCN(c4ccc(C(=O)NC5CCC(=O)NC5=O)cc4)CC3)CC2)C1` (stereo partly drawn) [Compound 515, 4-(4-((4-(((R)-3-(4-amino-3-(4-phenoxyphenyl)-1H-pyrazolo[3,4-d]pyrimidin-1-yl)piperidin-1-yl)methyl)piperidin-1-yl)methyl)piperidin-1-yl)-N-(2,6-dioxopiperidin-3-yl)benzamide], the IC50 with JeKo-1 cells (Homo sapiens) is 1000 to 10000 nM; with Mino cells (Homo sapiens, MINO), under 1000 nM. At BTK (cell line not given), the 50% degradation concentration (DC50) was under 10 nM. In addition, the maximal degradation (Dmax) on BTK was over 90%.
For the molecule `Nc1ncnc2c1c(-c1ccc(Oc3ccccc3)cc1)nn2[C@@H]1CCCN(C2CCN(CC3CCN(c4ccc(C(=O)NC5CCC(=O)NC5=O)cc4)CC3)CC2)C1` (stereo partly drawn) [Compound 516, 4-(4-(((R)-3-(4-amino-3-(4-phenoxyphenyl)-1H-pyrazolo[3,4-d]pyrimidin-1-yl)-[1,4′-bipiperidin]-1′-yl)methyl)piperidin-1-yl)-N-(2,6-dioxopiperidin-3-yl)benzamide], the IC50 was under 1000 nM in the test on JeKo-1 cells (Homo sapiens) and 1000 to 10000 nM with Mino cells (Homo sapiens, MINO). Moreover, the DC50 at BTK (cell line not given) was under 10 nM. Besides, the Dmax on BTK was over 75%.
Consider `Nc1ncnc2c1c(-c1ccc(Oc3ccccc3)cc1)nn2[C@@H]1CCCN(C2CCN(C(=O)NC3CCC(=O)NC3=O)CC2)C1` (stereo partly drawn) [Compound 517, (3R)-3-(4-amino-3-(4-phenoxyphenyl)-1H-pyrazolo[3,4-d]pyrimidin-1-yl)-N-(2,6-dioxopiperidin-3-yl)-[1,4′-bipiperidine]-1′-carboxamide], for which the IC50 with JeKo-1 cells (Homo sapiens) fell in the range of 1000 to 10000 nM; in the test on Mino cells (Homo sapiens, MINO), 1000 to 10000 nM. On BTK (cell line not given), the 50% degradation concentration (DC50) was under 10 nM. The maximal degradation (Dmax) on BTK is over 75%.

Values taken from patent publication US12139492B2 (Endotarget Inc., priority 2021, dated 2024).
